# Tested on: mouse derived immortalized melanocyte cells (M3)
# Assay: Suppression of melanogenesis in vitro (melanin extracted, optical density at 405 nm; visual count of melanized cells)
# Format: cell-based
# Conditions: Treatment Dose 0.100%; M3 melanocytes, treated days 1, 3, 5; melanin extracted day 6, OD 405 nm
smiles,measurement,value
O=C1O[C@H]([C@@H](O)CO)C(O)=C1O [Ascorbic Acid],% Control Melanin,51%
